These results are taken from patent publication US8673351B2, “Crystallization inhibitor and its use in gelatin capsules” (Ivax Pharmaceuticals S.R.O., priority 2005, dated 2014).

This data set is described as follows: Titration of lipophilic capsule contents (placebo) with water until emulsification (robustness). The format is physicochemical. Particulars: placebo capsule contents after the 5 w/w addition of the emulsion stabilizer; titrated with water at room temperature until clear oily liquid turns into milky turbid emulsion. From the text: The resistance of the contents of gelatin capsules to the water passing inside was quantified by performing a titration experiment. While stirring constantly using a magnetic stirrer at room temperature, the lipophilic contents intended for capsules was gradually titrated with water until the clear oily liquid begins to change into a milky turbid emulsion.
The robustness of the contents was expressed in the following table as an amount of water, in % w/w, necessary to induce emulsification of the contents.
Take Decaglyceryl monolaurate: the “Robustness (amount of water necessary to induce emulsification of the contents)” value (shortened to “Robustness”) is listed as 0.84 weight %. With Decaglyceryl monooleate, the “Robustness” value was 1.02 weight %.

In the case of `CCCCCCCC/C=C\CCCCCCCC(=O)OCC(O)CO` (stereo not drawn) [Glyceryl monooleate], the “Robustness” value came out at 4.98 weight %. For Diglyceryl monooleate, the “Robustness” value was 1.68 weight %. For the compound Decaglyceryl decaoleate, the “Robustness” value is on record as 0.85 weight %. Then `CCCCC/C=C\C/C=C\CCCCCCCC(=O)OCC(O)CO` (stereo not drawn) [Glyceryl monolinoleate], with 3.23 weight %.
